Results on two molecules are retold here after patent US5935591A, “Method for treatment of equine protozoal myeloencephalitis with thiazolides” (Romark Laboratories, L.C., priority 1998, dated 1999).

Values after ≈ are worked out from the molar mass of the structure shown. Where two headings read alike, the source gives them in different places. A value given as a limit tells only on which side of the number the result lay.

One series has as its system Sarcocystis spp. The series can be described thus: in vitro test system for activity against Sarcocystis spp. The series is classed as cell-based. Conditions: for activity in inhibiting the growth of the protozoa: in words.
The subject of series [1] is equine protozoal myeloencephalitis (Sarcocystis infection). In words: treatment of horses with nitazoxanide: symptoms of EPM. The series is classed as in vivo, horse. As to the method:
(§1) All dosages were administered in solid (tablet) form.
(§2) This horse was positive for Sarcocystis infection in CSF and serum. […] The horse injured both hocks on day 12 by kicking the stall, resulting in edema of both rear limbs. […] On day 17 he was back to eating normally. Symptoms of EPM were gone by day 10 and have not returned.
(§3) This horse was positive for Sarcocystis infection in serological testing for antibody, showing no symptoms of the disease.
(§4) This horse was positive for Sarcocystis in serological testing for antibody, showing no symptoms of the disease.

Series [2] can be described thus: safety and tolerance of nitazoxanide in horses. To be noted: for tolerance of the drug: oral. It is filed as in vivo, horse. Here is the method: as §1, §2, §3, §4
For series [3] the following is noted: cited from earlier work.
Another series has as its system Moniezia expansa. To be noted: single oral dose; sheep; cited from earlier work.
Series [4] deals with Avitellina centripunctata. To be noted: single oral dose; sheep; cited from earlier work.
Another series deals with Stilesia globipunctata. Conditions: single oral dose; sheep; cited from earlier work.
In the next series the test system is Thysanezia ovilla. Conditions: single oral dose; sheep; cited from earlier work.
A further series deals with Dipylidium caninum. To be noted: single oral dose; dogs; cited from earlier work.
The next series has as its system Taenia pisiformis. Conditions: single oral dose; dogs; cited from earlier work.
The subject of another series is Taenia taeniaeformis. To be noted: single oral dose; cats; cited from earlier work.
The next series has as its system Uncinaria stenocephala. To be noted: repeated doses; dogs; cited from earlier work.
Another series deals with Trichuris vulpis. To be noted: repeated doses; dogs; cited from earlier work.
The next series has as its system Hymenolepis nana. Conditions: mice; cited from earlier work.
The test system of a further series is Syphacia obvelata. Conditions: mice; cited from earlier work.
The subject of series [5] is Gram positive bacteria such as Staphylococcus aureus. To be noted: cited from earlier work.
In series [6] the test system is facultative and obligate anaerobic Gram positive and Gram negative bacteria. Conditions: cited from earlier work.
Series [7] concerns protozoan and helminthic pathogens. Conditions: cited from earlier work.

For the molecule `CC(=O)Oc1ccccc1C(=O)Nc1ncc([N+](=O)[O-])s1` [nitazoxanide, 2-(acetolyloxy)-N-(5-nitro 2-thiazoly) benzamide], in the series on Sarcocystis spp., the “50% inhibitory concentration (growth of the protozoa)” value is “approximately 0.475 μg/ml”. In the series with Sarcocystis spp., the “activity in inhibiting the growth of the protozoa” value is “highly active”. For the same molecule, the “day by which symptoms of EPM were gone” value in series [1] (Horse #1, Sarcocystis positive in CSF and serum, oral tablet, 50 mg/kg days 1-6, 100 mg/kg days 9-16, 150 mg/kg days 18-25) is ≤ 10 days. In addition, in series [1] (Horse #1, monitoring continued for 23 days), the reoccurrence of symptoms entry is “no reoccurrence of symptoms”. Moreover, the “symptoms at the end of the trial and during the 30-day period after the trial” value in [1] (five horses, oral tablets, 50-150 mg/kg) was “absence of any symptoms”. The eating of feed result in series [2] (Horse #1, days 15 and 16 (100 mg/kg days 9-16), back to eating normally on day 17) is reported as “slow to finish eating feed”. Further, the “tolerance of the drug” value in [2] (Horse #2, 75 mg/kg days 1-6, 100 mg/kg days 9-16, 150 mg/kg days 18-25) is listed as “tolerated the drug well at all dose levels”; in series [2] (Horse #3, 75 mg/kg days 1-6, 100 mg/kg days 9-16, 150 mg/kg days 18-27), “tolerated the drug well at all dose levels”; in series [2] (Horse #4, 75 mg/kg days 1-6, 100 mg/kg days 9-16, 150 mg/kg days 18-27), “tolerated the drug well at all dose levels”; in series [2] (Horse #5, 75 mg/kg days 1-6, 100 mg/kg days 9-16, 150 mg/kg days 18-27), “tolerated the drug well at all dose levels”. In addition, the signs of toxicity result in series [2] (all five horses) is “no signs of toxicity”. The solubility result was “very poorly soluble” in [3] ("either" (so in the source)); “poorly soluble” in series [3] (acetic acid); “fairly soluble” in series [3] (acetone); “poorly soluble” in [3] (chloroform); “fairly soluble” in series [3] (dioxane); “poorly soluble” in series [3] (ethanol). Further, the solubility entry is on record as “very poorly soluble” in [3] (methyl benzene), “easily soluble” in series [3] (pyridine) and “very poorly soluble” in series [3] (water). The cestocidal effect result (in the series with Moniezia expansa; in series [4]; with Stilesia globipunctata; in the series on Thysanezia ovilla; with Dipylidium caninum; in the series with Taenia pisiformis) was “cestocidal effect” in each case. Moreover, the cestocidal effect result with Taenia taeniaeformis is recorded as “cestocidal effect”. Moreover, the “efficacy against gastrointestinal nematodes” value with Uncinaria stenocephala and in the series with Trichuris vulpis was “also observed” throughout. Besides, the single dose activity result with Hymenolepis nana is listed as “activity”. For the same molecule, the “effect of repeated doses” value in the series with Syphacia obvelata is listed as “effect”. The antibacterial effect result in series [5] and in series [6] was “effective” each time. Besides, the “activity against protozoan and helminthic pathogens” value in [7] is “activity against a number of protozoan and helminthic pathogens”.

Turning to `O=C(Nc1ncc([N+](=O)[O-])s1)c1ccccc1O` [tizoxanide], the “activity in inhibiting the growth of the protozoa” value in the series with Sarcocystis spp. is “highly active”. Further, the IC50 in the series on Sarcocystis spp. (read-out: 50% inhibitory concentration (growth of the protozoa)) was ~0.475 µg/mL (≈ 1.79 µM).
